Test results published in ChEMBL document CHEMBL5357085, “Synthesis and Evaluation of Natural and Unnatural Tetrahydrocannabiorcol for Its Potential Use in Neuropathologies” (J Nat Prod, 2024).
Calls of active or inactive are those of the source. The calls are words filed in the database; no cut-off is given here.

Columns and labels:
[1] = system: SH-SY5Y; experiment: Cytotoxicity against human SH-SY5Y cells assessed as reduction in cell viability at 5 nM measured after 48 hrs by MTT assay; type: toxicity, cell-based; details: 0.005 µM
[2] = system: SH-SY5Y; experiment: Neuroprotective activity against corticosterone-induced cytotoxicity in human SH-SY5Y cells assessed as BDNF concentration at 5 nM preincubated with compound for 2 hrs followed by corticosterone addition and measured 2 hrs after replacement with fresh media by ELISA (reference value: 5 pg/ml); type: functional
[3] = system: SH-SY5Y; experiment: Neuroprotective activity against corticosterone-induced cytotoxicity in human SH-SY5Y cells assessed as rescue of cell viability at 5 nM preincubated with compound for 24 hrs followed by corticosterone stimulation and measured after 48 hrs by MTT assay (reference value: 41%); type: functional; details: time 72 hrs
[4] = Upregulation of BDNF expression in human SH-SY5Y cells at 5 nM incubated for 2 hrs by ELISA; type: functional
[5] = system: SH-SY5Y; experiment: Neuroprotective activity against corticosterone-induced cytotoxicity in human SH-SY5Y cells assessed as rescue of cell viability at 10 uM preincubated with compound for 24 hrs followed by corticosterone stimulation and measured after 48 hrs by MTT assay (reference value: 41%); type: functional; details: time 72 hrs
[6] = system: SH-SY5Y; experiment: Neuroprotective activity against corticosterone-induced cytotoxicity in human SH-SY5Y cells assessed as […] at 10 uM preincubated with compound for 2 hrs followed by corticosterone addition and measured 2 hrs after replacement with fresh media by ELISA; type: functional
[7] = system: SH-SY5Y; experiment: Neuroprotective activity against corticosterone-induced cytotoxicity in human SH-SY5Y cells assessed as rescue of cell viability at 20 uM preincubated with compound for 24 hrs followed by corticosterone stimulation and measured after 48 hrs by MTT assay (reference value: 41%); type: functional; details: time 72 hrs
[8] = system: SH-SY5Y; experiment: Neuroprotective activity against corticosterone-induced cytotoxicity in human SH-SY5Y cells assessed as rescue of cell viability at 10 uM preincubated with compound for 24 hrs followed by corticosterone stimulation and measured after 48 hrs by MTT assay relative to control; type: functional; details: time 72 hrs
[9] = system: SH-SY5Y; experiment: Neuroprotective activity against corticosterone-induced cytotoxicity in human SH-SY5Y cells assessed as rescue of cell viability at 10 uM preincubated with compound for 72 hrs followed by corticosterone stimulation and measured after 48 hrs by MTT assay relative to control; type: functional; details: time 120 hrs
[10] = system: SH-SY5Y; experiment: Neuroprotective activity against corticosterone-induced cytotoxicity in human SH-SY5Y cells assessed as rescue of cell viability at 10 uM preincubated with compound for 48 hrs followed by corticosterone stimulation and measured after 48 hrs by MTT assay relative to control; type: functional; details: time 96 hrs
[11] = system: SH-SY5Y; experiment: Neuroprotective activity against corticosterone-induced cytotoxicity in human SH-SY5Y cells assessed as rescue of cell viability at 10 uM preincubated with compound for 96 hrs followed by corticosterone stimulation and measured after 48 hrs by MTT assay relative to control; type: functional; details: time 144 hrs
[12] = system: SH-SY5Y; experiment: Neuroprotective activity against corticosterone-induced cytotoxicity in human SH-SY5Y cells assessed as BDNF concentration at 10 uM preincubated with compound for 2 hrs followed by corticosterone addition and measured 2 hrs after replacement with fresh media by ELISA (reference value: 5 pg/ml); type: functional
[13] = system: SH-SY5Y; experiment: Cytotoxicity against human SH-SY5Y cells assessed as reduction in cell viability at 10 uM measured at 24 to 96 hrs by MTT assay; type: toxicity, cell-based; details: time 24-96 hrs
[14] = Upregulation of BDNF expression in human SH-SY5Y cells at 10 uM incubated for 2 hrs by ELISA; type: functional
[15] = system: SH-SY5Y; experiment: Cytotoxicity against human SH-SY5Y cells assessed as reduction in cell viability at 1 to 50 uM measured after 48 hrs by MTT assay; type: toxicity, cell-based; details: dose 1-50 µM
[16] = system: SH-SY5Y; experiment: Neuroprotective activity against corticosterone-induced cytotoxicity in human SH-SY5Y cells assessed as rescue of cell viability at 5 uM preincubated with compound for 24 hrs followed by corticosterone stimulation and measured after 48 hrs by MTT assay (reference value: 41%); type: functional; details: time 72 hrs
[17] = Downregulation of corticosterone release in human SH-SY5Y cells at 10 uM incubated for 2 hrs by ELISA; type: functional
[18] = system: SH-SY5Y; experiment: Neuroprotective activity against corticosterone-induced cytotoxicity in human SH-SY5Y cells assessed as […] at 20 uM preincubated with compound for 2 hrs followed by corticosterone addition and measured 2 hrs after replacement with fresh media by ELISA; type: functional, cell-based
[19] = system: SH-SY5Y; experiment: Neuroprotective activity against corticosterone-induced cytotoxicity in human SH-SY5Y cells assessed as rescue of cell viability at 20 uM preincubated with compound for 24 hrs followed by corticosterone stimulation and measured after 48 hrs by MTT assay; type: functional, cell-based; details: time 72.0 hrs
[20] = system: SH-SY5Y; experiment: Cytotoxicity against human SH-SY5Y cells assessed as reduction in cell viability at 20 uM measured after 48 hrs by MTT assay; type: toxicity, cell-based
[21] = system: SH-SY5Y; experiment: Neuroprotective activity against corticosterone-induced cytotoxicity in human SH-SY5Y cells assessed as rescue of BDNF expression at 20 uM preincubated with compound for 2 hrs followed by corticosterone addition and measured 2 hrs after replacement with fresh media by ELISA (reference value: 5 pg/ml); type: functional, cell-based
[22] = system: SH-SY5Y; experiment: Upregulation of BDNF expression in human SH-SY5Y cells at 20 uM incubated for 2 hrs by ELISA; type: functional, cell-based
[23] = system: SH-SY5Y; experiment: Inhibition of corticosterone release in human SH-SY5Y cells at 20 uM incubated for 2 hrs by ELISA; type: functional, cell-based

Compound | Activity [5] [%] | Activity [6] [pg/mL] | Activity [7] [%] | Activity [8] [%] | Activity [9] [%] | Activity [10] [%] | Activity [11] [%] | Activity [12] [pg/mL] | Activity [13] | Activity [14] [pg/mL] | Activity [15] | Activity [16] [%] | Activity [17] [pg/mL] | further results
O=c1cc(-c2ccccc2)oc2c(O)c(O)ccc12 [7,8-DIHYDROXYFLAVONE] |  |  |  |  |  |  |  |  |  |  |  |  |  | Activity [1]: Non-Toxic; Activity [2]: 21 pg/mL; Activity [3]: 86%; Activity [4]: 19 pg/mL
CC1=C[C@H]2c3c(O)cc(C)cc3OC(C)(C)[C@@H]2CC1 | 96 | 7 | 97 | 89 | 95 | 90 | 99 | 18 | Non-Toxic | 21 | Non-Toxic | 79 | 0.22 | 
CC1=C[C@@H]2c3c(O)cc(C)cc3OC(C)(C)[C@H]2CC1 | 99 | 5 | 101 | 92 | 102 | 98 | 104 | 25 | Non-Toxic | 29 | Non-Toxic | 83 | 0.43 | 
C=C(C)[C@@H]1CCC(C)=C[C@H]1c1c(O)cc(CCCCC)cc1O [CANNABIDIOL] |  |  |  |  |  |  |  |  |  |  |  |  |  | Activity [18]: inactive; Activity [19]: Active; Activity [20]: Non-Toxic; Activity [21]: inactive; Activity [22]: inactive; inhibition [23]: inactive
